Measured values taken from patent US7858637B2, “Administration of TLR7 ligands and prodrugs thereof for treatment of infection by hepatitis C virus” (priority 2003, dated 2010).
Counter-ions that a name gives are not always drawn. Like-named read-outs stand apart in the source and are kept apart here.

Experiments:
interferon alpha = assay: Interferon alpha plasma concentrations in mice; assay type: in vivo, mouse
Text: Not only can one measure the plasma concentrations of isatoribine arising from oral administration of the said prodrug(s) but also the extensive immunological research conducted in the mouse has provided reagents suitable for measuring the levels of interferon alpha, a cytokine of interest reflecting one of the desired biologic activities of isatoribine.

[1] = Toxicology studies, GI tolerance in beagle dogs; assay type: in vivo, beagle dog; conditions: dogs, oral val-isatoribine
Text: We compared in the dog the oral toxicology of 21 and 24, and the intravenous toxicology of 21. We observed that the oral toxicology of 24 was much more like intravenous 21 than it was like oral 21.

[2] = system: human peripheral blood mononuclear cells (PBMC); assay: PBMC assay of interferon alpha release (masking); assay type: cell-based; conditions: Homo sapiens, PBMC, read-out: Amount of INFa relative to that induced by isatoribine at 100 μM
Method: A typical experiment would use human peripheral blood mononuclear cells (PBMC) isolated from a healthy donor and placed in replicate cell culture wells; typically, 2×10^6 to 5×10^6 cells are placed in each well. The PBMC are incubated in the absence of test compounds at 37° C. in a humidified atmosphere containing 5% CO2 for 24 hours to allow stabilization to the culture conditions, and then 100 micromolar isatoribine, the TLR7 ligand and a corresponding TLR7 ligand prodrug are added to separate wells containing PBMC from the same donor; untreated controls are included. The concentrations of TLR7 ligand and TLR7 ligand prodrug may be varied to suit the particular experiment, and the PBMC cultures are then incubated at 37° C. in a humidified atmosphere containing 5% CO2 for a period of time ranging from two hours to 48 hours. Samples of cell culture supernate media are taken during the incubation. These are assayed for cytokine production by ELISA. Additionally the amount of TLR7 ligand and TLR7 ligand prodrug remaining at the end of the incubation may be assayed by LC-MS. Cytokine production is calculated relative to production in the isatoribine control, following subtraction of the cytokine production in untreated controls.
Thus, if the TLR7 ligand generates more interferon alpha (a conveniently measured cytokine) than does the corresponding TLR7 ligand prodrug after a similar duration of exposure and concentration, the TLR7 ligand prodrug may be deemed a “masked” TLR7 ligand prodrug.

human TLR7 = biological target: T1, human TLR7 (Homo sapiens, UniProt Q9NYK1); assay: HEK293-hTLR7 NF-kB luciferase reporter (C23) assay; conditions: read-out: mean fold induction of luciferase activity compared to the no drug control
T1 sequence (Q9NYK1 27-1049): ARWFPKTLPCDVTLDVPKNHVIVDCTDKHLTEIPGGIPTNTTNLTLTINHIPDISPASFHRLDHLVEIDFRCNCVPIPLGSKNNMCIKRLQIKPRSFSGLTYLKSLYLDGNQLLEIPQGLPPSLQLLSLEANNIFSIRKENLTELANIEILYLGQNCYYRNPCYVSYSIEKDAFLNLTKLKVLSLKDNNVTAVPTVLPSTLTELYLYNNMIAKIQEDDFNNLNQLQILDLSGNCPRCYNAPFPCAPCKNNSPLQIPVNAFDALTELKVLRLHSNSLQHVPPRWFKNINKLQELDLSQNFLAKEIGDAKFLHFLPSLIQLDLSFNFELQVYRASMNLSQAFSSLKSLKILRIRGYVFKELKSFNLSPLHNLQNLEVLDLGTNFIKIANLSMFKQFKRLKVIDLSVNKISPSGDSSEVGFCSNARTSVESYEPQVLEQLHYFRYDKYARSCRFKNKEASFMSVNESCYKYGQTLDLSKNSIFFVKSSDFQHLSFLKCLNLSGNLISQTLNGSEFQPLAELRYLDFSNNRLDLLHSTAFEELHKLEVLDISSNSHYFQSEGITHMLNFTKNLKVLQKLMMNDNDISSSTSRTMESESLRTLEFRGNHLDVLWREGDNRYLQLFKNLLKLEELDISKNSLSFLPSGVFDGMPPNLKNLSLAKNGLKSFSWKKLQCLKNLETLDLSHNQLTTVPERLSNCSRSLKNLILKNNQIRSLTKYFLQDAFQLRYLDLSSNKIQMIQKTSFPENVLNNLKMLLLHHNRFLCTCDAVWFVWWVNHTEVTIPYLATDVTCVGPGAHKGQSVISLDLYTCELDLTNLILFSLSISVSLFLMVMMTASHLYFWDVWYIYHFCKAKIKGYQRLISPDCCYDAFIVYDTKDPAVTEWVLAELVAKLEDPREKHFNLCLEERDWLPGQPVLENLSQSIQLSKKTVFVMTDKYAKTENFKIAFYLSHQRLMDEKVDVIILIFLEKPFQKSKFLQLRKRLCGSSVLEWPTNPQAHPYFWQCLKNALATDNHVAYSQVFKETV
Method: A stable HEK293-hTLR7 cell line was obtained from Invivogen (San Diego, Calif.), transfected with pNiFty2-Luc, an NF-kB inducible luciferase reporter plasmid (Invivogen) and (dual) stable transfectants selected. The resultant dual (hTLR7/pNiFty2-Luc) cell lines were functionally tested by response to loxoribine and isatoribine as measured by fold luciferase induction relative to a no drug control. […] See, e.g., Hemmi H. et al., Nat.
For a typical C23 assay, cells are seeded at 6×10^4 cells/well in 96 well plates and 4-24 hours later are treated with various concentrations of compound. After 2-48 hours exposure the cell monolayers are lyzed with passive lysis buffer (Promega) and the firefly luciferase assay carried out using the luciferase assay reagent (Promega) as specified by the manufacturer. Relative luciferase activities are expressed as folds of induction compared to the no drug control. A two-fold induction over background is considered a bona fide TLR7 agonist, dependent on this being a statistically significant increase.
In Table 1, isatoribine, was added to C23 cells for forty-eight hours, and the cells were then harvested and assayed for luciferase activity. Each time-point was assayed in triplicate.
Each time-point was assayed in triplicate.

HCV replicon = assay: HCV replicon-based viral bioassay with supernatants of compound-treated PBMC; assay type: cell-based, hepatitis C virus
Method: A quantitative assay was developed which is based on measuring the activity of the luciferase reporter gene that was integrated into an HCV replicon. By using this system, interferons from TLR7 agonist-treated PBMCs were measured and their inhibitory activity was assessed using the luciferase reporter replicon.
Human PBMCs isolated from a healthy donor were placed in replicate cell culture wells (5×10^6 cells per well). The PBMCs are incubated in the absence of test compounds at 37° C. in a humidified atmosphere containing 5% CO2 for 24 hours to allow stabilization to the culture conditions, and then the TLR7 ligand or a drug free control is added to replicate wells containing PBMCs from the same donor. The concentrations of TLR7 ligand may be varied to suit the particular experiment, and the PBMC cultures are then incubated at 37° C. in a humidified atmosphere containing 5% CO2 for eight hours. Samples of cell culture supernatant are taken at the eight hour time point (or twenty four hour time point in case of Loxoribine and its prodrugs) from TLR7 ligand treated and control wells and are assayed for interferon-alpha production by ELISA. Supernatants from compound-treated cells and a no-drug control were diluted at 1:10, 1:100, and 1:1000 in RPMI media and applied to a 96-well plate of Huh7 hepatocyte cells containing the luciferase reporter replicon. Cells were incubated for 48 hours at 37° C. in a tissue culture incubator.
After the incubation period, the 96-well plates are washed 2× with PBS and are lysed with passive lysis buffer (Promega). Plates are shaken at room temperature for 20 minutes and standard luciferase assay reagent (Promega) is added to each well by injection and the plate is read on an Lmax luminometer (Molecular Devices).
A supernatant collected from PBMC cells non-exposed to the compound and diluted as specified in the first column was used as a control (“Blank supernatant”). The PBMC cells were isolated from a single blood donor as specified.

HCV = conditions: treatment of HCV, Pockros et al., Gastroenterology 2003; cited from earlier work
[3] = isatoribine equivalent applied dose 8.1 mg/kg
[4] = isatoribine equivalent applied dose 16 mg/kg
[5] = isatoribine equivalent applied dose 32 mg/kg
[6] = isatoribine equivalent applied dose 64 mg/kg

Work on `CC(=O)OC[C@H]1O[C@@H](n2c(=O)sc3c(=O)[nH]c(N)nc32)[C@H](OC(C)=O)[C@@H]1OC(C)=O` yielded a melting point of 198 to 199 °C.
In the case of `Nc1ncc2sc(=O)n([C@@H]3O[C@H](CO)[C@@H](O)[C@H]3O)c2n1`, the melting point is reported as 220 °C (dec.).
For `CC(C)[C@H](N)C(=O)OC[C@H]1O[C@@H](n2c(=O)sc3c(=O)[nH]c(N)nc32)[C@H](O)[C@@H]1O` (as salt: hydrochloride) [Compound 24, 5-Amino-3-(5′-O-L-valinyl-β-D-ribofuranosyl)thiazolo[4,5-d]pyrimidine-2,7-dione Dihydrochloride], the melting point was 166 to 168 °C (dec.).
For `CC(C)[C@H](N)C(=O)OC[C@H]1O[C@@H](n2c(=O)sc3c(O)nc(N)nc32)[C@H](O)[C@@H]1O` [Compound 24, 5-Amino-3-(5′-O-L-valinyl-β-D-ribofuranosyl)thiazolo[4,5-d]pyrimidine-2,7-dione Dihydrochloride], the “increase of the magnitude of both the average and peak interferon response over isatoribine” value (interferon alpha; mice, oral dosing) was 100%, the “levels of isatoribine and interferon relative to those after intravenous isatoribine” value (interferon alpha; mice, oral, 50 mg/kg isatoribine molar equivalent vs intravenous isatoribine 25 mg/kg, FIG. 1) was “approximately 50%” and the “mice with detectable interferon in their plasma” value (interferon alpha; oral dosing, data of Tables 15, 16 and 17) was 10 of the 30. The “Emesis or loose stool” value [1, 3] was “Neg”, the “GI lesions or irritation” value [1, 3] was “Neg” and the “Emesis or loose stool” value [1, 4] was “Neg”. The “GI lesions or irritation” value [1, 4] was “Neg”, the “Emesis or loose stool” value [1, 5] was “Neg” and the “GI lesions or irritation” value [1, 5] was “Neg”. For the same molecule, the “Emesis or loose stool” value [1, 6] was “Neg”, the “GI lesions or irritation” value [1, 6] was “Neg” and the “GI lesions or irritation” value ([1]; isatoribine equivalent applied dose 130 mg/kg) was “Neg”. For the same molecule, the “GI lesions or irritation” value ([1]; isatoribine equivalent applied dose 260 mg/kg) was “Neg”, the “GI lesions or irritation” value ([1]; isatoribine equivalent applied dose 390 mg/kg) was “Neg” and the Emax at 100 µM ([2]; Table 9, 100 μM, 8 hours exposure, same blood donor) was 1%.
`COCCOc1nc(N)c2nc(O)n(Cc3ccccc3)c2n1` [Compound 29, 6-Amino-9-benzyl-2-(2-methoxy-ethoxy)-9H-purin-8-ol] gave a fold induction at 1 µM (human TLR7) of 20.8, a fold induction at 3.2 µM (human TLR7) of 37.3 and a fold induction at 10 µM (human TLR7) of 47.5. The fold induction at 32 µM (human TLR7) was 48.4, the Emax at 0.1 µM ([2]; Table 14, 0.1 μM, 24 hours exposure) was 128% and the HCV replicon inhibition (HCV replicon; Table 8 No. 1, PBMC exposed 8 hours to 0.1 μM, a TFA salt, donor FL76418, supernatant dilution 1:10) was 100%. The HCV replicon inhibition (HCV replicon; Table 8 No. 1, PBMC exposed 8 hours to 0.1 μM, a TFA salt, donor FL76418, supernatant dilution 1:100) was 73%, the HCV replicon inhibition (HCV replicon; Table 8 No. 1, PBMC exposed 8 hours to 0.1 μM, a TFA salt, donor FL76418, supernatant dilution 1:1000) was 0% and the HCV replicon inhibition (HCV replicon; Table 8 No. 2, PBMC exposed 8 hours to 0.1 μM, a TFA salt, donor FL76418, supernatant dilution 1:10) was 100%. It also gave an HCV replicon inhibition (HCV replicon; Table 8 No. 2, PBMC exposed 8 hours to 0.1 μM, a TFA salt, donor FL76418, supernatant dilution 1:100) of 64% and an HCV replicon inhibition (HCV replicon; Table 8 No. 2, PBMC exposed 8 hours to 0.1 μM, a TFA salt, donor FL76418, supernatant dilution 1:1000) of 9%.
In the case of `CCOCc1nc2c(N)nc3ccccc3c2n1CC(C)(C)O` [Compound 38, 1-(4-amino-2-ethoxymethyl-imidazo[4,5-c]quinolin-1-yl)-2-methyl-propan-2-ol], the “anti-HCV effect at tolerated oral doses” value (HCV) is given as “failed to show anti-HCV effect”, the Emax at 100 µM ([2]; 24 h) is given as 9% and the HCV replicon inhibition (HCV replicon; Table 6 No. 1, PBMC exposed 8 hours to 10 μM, donor FL75287, supernatant dilution 1:10) is given as 100%. For the same molecule, the HCV replicon inhibition (HCV replicon; Table 6 No. 1, PBMC exposed 8 hours to 10 μM, donor FL75287, supernatant dilution 1:100) was 98%, the HCV replicon inhibition (HCV replicon; Table 6 No. 1, PBMC exposed 8 hours to 10 μM, donor FL75287, supernatant dilution 1:1000) was 21% and the HCV replicon inhibition (HCV replicon; Table 6 No. 2, PBMC exposed 8 hours to 10 μM, donor FL75287, supernatant dilution 1:10) was 100%. It also gave an HCV replicon inhibition (HCV replicon; Table 6 No. 2, PBMC exposed 8 hours to 10 μM, donor FL75287, supernatant dilution 1:100) of 88% and an HCV replicon inhibition (HCV replicon; Table 6 No. 2, PBMC exposed 8 hours to 10 μM, donor FL75287, supernatant dilution 1:1000) of 6%.
`CC(=O)O[C@@H]1[C@H](OC(C)=O)[C@@H](CO)O[C@H]1n1c(=O)sc2cnc(N)nc21` [Compound 93, 5-Amino-3-(2′,3′-di-O-acetyl-β-D-ribofuranosyl)-3H-thiazolo[4,5-d]pyrimidin-2-one] gave a melting point of 109 to 111 °C and an Emax at 100 µM ([2]; Table 9, 100 μM, 24 hours exposure, same blood donor) of 0%.
